Laboratory results from patent US10752631B2, “Heterocyclic compounds as FGFR inhibitors” (GUANGZHOU INNOCARE PHARMA TECH CO., LTD., priority 2016, dated 2020).

Columns and labels:
[1] = target: human recombinant FGFR2 catalytic structural domain protein (amino acids 400-821) (Homo sapiens (Human), UniProt P21802); experiment: FGFR2 activity inhibition test (HTRF kinase assay); assay type: biochemical; conditions: 50 μM ATP
[2] = target: human recombinant FGFR3 catalytic structural domain protein (amino acids 399-806) (Homo sapiens (Human), UniProt P22607); experiment: FGFR3 activity inhibition test (HTRF kinase assay); assay type: biochemical; conditions: 90 μM ATP
human recombinant FGFR3 catalytic structural domain protein (amino acids 399-806), sequence (P22607 399-806): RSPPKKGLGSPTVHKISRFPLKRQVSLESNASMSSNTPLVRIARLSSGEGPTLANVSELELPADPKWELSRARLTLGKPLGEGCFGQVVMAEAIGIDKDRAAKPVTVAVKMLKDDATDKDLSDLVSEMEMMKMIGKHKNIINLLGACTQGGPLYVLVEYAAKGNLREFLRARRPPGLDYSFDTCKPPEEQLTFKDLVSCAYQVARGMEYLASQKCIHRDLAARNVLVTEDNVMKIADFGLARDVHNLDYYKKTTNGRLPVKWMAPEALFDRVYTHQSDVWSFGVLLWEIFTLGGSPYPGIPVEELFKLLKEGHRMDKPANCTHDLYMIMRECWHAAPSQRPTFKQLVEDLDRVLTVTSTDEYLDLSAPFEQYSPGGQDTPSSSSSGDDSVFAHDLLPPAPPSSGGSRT

human recombinant FGFR2 catalytic structural domain protein (amino acids 400-821), sequence (P21802 400-821): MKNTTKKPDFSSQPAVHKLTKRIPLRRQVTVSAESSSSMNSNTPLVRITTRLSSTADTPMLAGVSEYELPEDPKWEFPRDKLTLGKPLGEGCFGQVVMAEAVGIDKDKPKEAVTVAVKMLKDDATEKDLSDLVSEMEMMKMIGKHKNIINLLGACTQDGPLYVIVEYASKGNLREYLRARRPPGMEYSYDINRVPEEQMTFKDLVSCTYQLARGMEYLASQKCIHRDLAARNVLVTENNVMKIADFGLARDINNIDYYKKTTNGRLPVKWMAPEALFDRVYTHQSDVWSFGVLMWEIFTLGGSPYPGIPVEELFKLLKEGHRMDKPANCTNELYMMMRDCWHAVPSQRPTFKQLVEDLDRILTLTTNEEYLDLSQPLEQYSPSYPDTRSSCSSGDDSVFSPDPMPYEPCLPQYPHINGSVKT

Row | SMILES | IC50 [1] [nM] | IC50 [2] [nM]
1 | C#CC(=O)N1CC[C@@H](c2nc(C#Cc3cc(OC)cc(OC)c3)c3c(N)nccn23)C1 (stereo in doubt) [Compound 8, 1-((3,5-Dimethoxyphenyl)ethynyl)-3-(1-propynoylpyrrolidin-3-yl)imidazo[1,5-a]pyrazin-8-amine] | < 50 | 50 to 500
2 | C/C=C/C(=O)N1CC[C@@H](c2nc(C#Cc3cc(OC)cc(OC)c3)c3c(N)nccn23)C1 [Compound 7, (E)-1-((3,5-Dimethoxyphenyl)ethynyl)-3-(1-butan-2-enoylpyrrolidin-3-yl)imidazo[1,5-a]pyrazin-8-amine] | < 50 | < 50
3 | CC#CC(=O)N1CCC(c2nc(C#Cc3cc(OC)cc(OC)c3)c3c(N)nccn23)C1 (centres unmarked) [Compound 9, 1-((3,5-Dimethoxyphenyl)ethynyl)-3-(1-butan-2-ynoylpyrolidin-3-yl)imidazo[1,5-a]pyrazin-8-amine] | < 50 | 50 to 500
4 | C/C=C/C(=O)N1CC(c2nc(C#Cc3cc(OC)cc(OC)c3)c3c(N)nccn23)C1 [Compound 11, (E)-1-((3,5-Dimethoxyphenyl)ethynyl)-3-(1-but-2-enoylazacyclobutan-3-yl)imidazo[1,5-a]pyrazin-8-amine] | 50 to 500 | 50 to 500
5 | CC#CC(=O)N1CC(c2nc(C#Cc3cc(OC)cc(OC)c3)c3c(N)nccn23)C1 [Compound 12, 1-((3,5-Dimethoxyphenyl)ethynyl)-3-(1-but-2-ynoylazacyclobutan-3-yl)imidazo[1,5-a]pyrazin-8-amine] | 50 to 500 | 50 to 500

Continued, values first:

Row | IC50 [1] [nM] | IC50 [2] [nM] | SMILES
6 | < 50 | < 50 | CC#CC(=O)N1CC[C@@H](c2nc(C#Cc3cc(OC)cc(OC)c3)c3c(N)nccn23)C1 [Compound 5, (R)-1-((3,5-Dimethoxyphenyl)ethynyl)-3-(1-butan-2-ynoylpyrrolidin-3-yl)imidazo[1,5-a]pyrazin-8-amine]
7 | < 50 | < 50 | COc1cc(C#Cc2nc(C3CCN(C(=O)/C=C/CN(C)C)C3)n3ccnc(N)c23)cc(OC)c1 (centres unmarked) [Compound 10]
